According to ChEMBL document CHEMBL2417389, “Synthesis and optimization of novel (3S,5R)-5-(2,2-dimethyl-5-oxo-4-phenylpiperazin-1-yl)piperidine-3-carboxamides as orally active renin inhibitors” (Bioorg Med Chem, 2013):
Positions count from the first letter of the chain named.

How the values were obtained:
hERG (KCNH2) = hERG (KCNH2) (Homo sapiens, UniProt Q12809); test: Inhibition of human ERG channel at 30 uM by patch clamp technique
Rattus norvegicus = test: Antihypertensive activity in double transgenic rat assessed as reduction in mean arterial pressure at 30 mg/kg, po measured for 48 hrs post dose; assay type: functional, organism-based; parameters: dose 30 mg/kg; conditions: Artery
Renin [1] = target: T1, Renin (Macaca fascicularis, UniProt Q6DLS0); test: Inhibition of cynomolgus monkey plasma renin assessed as angiotensin 1 level after 60 mins by competitive radioimmunoassay
T1 sequence (Q6DLS0 whole entry): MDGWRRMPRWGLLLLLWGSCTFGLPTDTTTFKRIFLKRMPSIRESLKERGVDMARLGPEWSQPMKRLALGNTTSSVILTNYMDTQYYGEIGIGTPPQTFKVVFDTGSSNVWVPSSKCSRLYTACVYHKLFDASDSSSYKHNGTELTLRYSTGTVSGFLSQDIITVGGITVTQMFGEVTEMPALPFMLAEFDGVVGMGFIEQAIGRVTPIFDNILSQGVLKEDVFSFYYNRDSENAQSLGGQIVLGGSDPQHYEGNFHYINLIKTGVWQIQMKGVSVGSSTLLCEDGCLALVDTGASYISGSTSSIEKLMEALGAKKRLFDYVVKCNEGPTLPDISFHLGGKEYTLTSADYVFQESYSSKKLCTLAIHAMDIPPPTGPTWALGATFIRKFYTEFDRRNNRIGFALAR

CYP3A4 = CYP3A4 (Homo sapiens, UniProt P08684); test: Inhibition of CYP3A4 (unknown origin) at 10 uM; assay type: ADME
CYP3A4, sequence (P08684 whole entry): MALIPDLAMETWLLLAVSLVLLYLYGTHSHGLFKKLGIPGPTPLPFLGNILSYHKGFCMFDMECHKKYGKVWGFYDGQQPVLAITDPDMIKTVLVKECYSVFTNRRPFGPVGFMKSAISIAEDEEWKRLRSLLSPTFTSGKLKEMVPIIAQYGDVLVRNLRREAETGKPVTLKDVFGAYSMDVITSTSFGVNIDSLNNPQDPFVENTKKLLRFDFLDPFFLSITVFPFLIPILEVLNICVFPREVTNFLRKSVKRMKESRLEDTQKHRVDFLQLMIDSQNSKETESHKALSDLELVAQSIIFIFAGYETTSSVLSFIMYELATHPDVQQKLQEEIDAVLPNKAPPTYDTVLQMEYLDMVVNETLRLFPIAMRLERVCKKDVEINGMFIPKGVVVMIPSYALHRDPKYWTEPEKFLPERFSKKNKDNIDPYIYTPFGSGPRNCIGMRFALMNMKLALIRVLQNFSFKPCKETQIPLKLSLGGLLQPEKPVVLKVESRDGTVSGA

CYP2D6 = CYP2D6 (Homo sapiens, UniProt P10635); test: Inhibition of CYP2D6 (unknown origin) at 10 uM; assay type: ADME
CYP2D6, sequence (P10635 whole entry): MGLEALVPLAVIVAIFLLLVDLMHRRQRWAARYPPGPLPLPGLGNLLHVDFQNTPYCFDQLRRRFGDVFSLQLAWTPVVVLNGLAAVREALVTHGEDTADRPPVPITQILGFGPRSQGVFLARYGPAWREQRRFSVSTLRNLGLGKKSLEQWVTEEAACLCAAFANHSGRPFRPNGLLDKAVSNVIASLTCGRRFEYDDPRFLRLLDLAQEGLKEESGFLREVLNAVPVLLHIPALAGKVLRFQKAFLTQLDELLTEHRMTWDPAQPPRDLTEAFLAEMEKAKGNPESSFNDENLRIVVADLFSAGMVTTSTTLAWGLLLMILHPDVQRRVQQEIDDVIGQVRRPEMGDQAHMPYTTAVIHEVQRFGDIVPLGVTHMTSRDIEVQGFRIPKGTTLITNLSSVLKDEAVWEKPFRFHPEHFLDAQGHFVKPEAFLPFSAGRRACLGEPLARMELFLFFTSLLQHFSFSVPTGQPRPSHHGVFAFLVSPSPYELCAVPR

[2] = target: T2, Renin (Macaca fascicularis) (UniProt Q6DLS0); test: Ratio of compound IC50 to Aliskiren hemifumarate IC50 for cynomolgus monkey plasma renin
T2 sequence (whole entry): T1 sequence (Q6DLS0 whole entry)

Renin [3] = target: T3, Renin (Homo sapiens, UniProt P00797); test: Inhibition of trypsin-activated human recombinant renin using (Arg-Glu(EDANS)-Ile-His-Pro-Phe-His-Leu-Val-Ile-His-Thr-Lys(DABCYL)-Arg) as substrate incubated for 10 mins prior to substrate addition measured after 90 mins by fluorescence assay
T3 sequence (P00797 whole entry): T1 sequence (Q6DLS0 whole entry) with A68T, L214I, A235S

[4] = AUC (0 to 24 hrs) in cynomolgus monkey at 3 mg/kg, po; assay type: ADME, organism-based, Macaca fascicularis; parameters: time < 24 hr, dose 3 mg/kg, route oral; conditions: plasma
[5] = AUC (0 to 24 hrs) in Sprague-Dawley rat at 10 mg/kg, po; assay type: ADME, organism-based; parameters: time < 24 hr, dose 10 mg/kg, route oral; conditions: plasma
[6] = AUC (0 to 24 hrs) in cynomolgus monkey at 10 mg/kg, po; assay type: ADME, organism-based, Macaca fascicularis; parameters: time < 24 hr, dose 10 mg/kg, route oral; conditions: plasma
Cynomolgus monkey = test: Antihypertensive activity in cynomolgus monkey assessed as reduction in mean arterial pressure at 10 mg/kg, po measured for 24 hrs post dose; assay type: functional, organism-based; parameters: dose 10 mg/kg; conditions: Macaca fascicularis, Artery

hERG (KCNH2), sequence (Q12809 whole entry): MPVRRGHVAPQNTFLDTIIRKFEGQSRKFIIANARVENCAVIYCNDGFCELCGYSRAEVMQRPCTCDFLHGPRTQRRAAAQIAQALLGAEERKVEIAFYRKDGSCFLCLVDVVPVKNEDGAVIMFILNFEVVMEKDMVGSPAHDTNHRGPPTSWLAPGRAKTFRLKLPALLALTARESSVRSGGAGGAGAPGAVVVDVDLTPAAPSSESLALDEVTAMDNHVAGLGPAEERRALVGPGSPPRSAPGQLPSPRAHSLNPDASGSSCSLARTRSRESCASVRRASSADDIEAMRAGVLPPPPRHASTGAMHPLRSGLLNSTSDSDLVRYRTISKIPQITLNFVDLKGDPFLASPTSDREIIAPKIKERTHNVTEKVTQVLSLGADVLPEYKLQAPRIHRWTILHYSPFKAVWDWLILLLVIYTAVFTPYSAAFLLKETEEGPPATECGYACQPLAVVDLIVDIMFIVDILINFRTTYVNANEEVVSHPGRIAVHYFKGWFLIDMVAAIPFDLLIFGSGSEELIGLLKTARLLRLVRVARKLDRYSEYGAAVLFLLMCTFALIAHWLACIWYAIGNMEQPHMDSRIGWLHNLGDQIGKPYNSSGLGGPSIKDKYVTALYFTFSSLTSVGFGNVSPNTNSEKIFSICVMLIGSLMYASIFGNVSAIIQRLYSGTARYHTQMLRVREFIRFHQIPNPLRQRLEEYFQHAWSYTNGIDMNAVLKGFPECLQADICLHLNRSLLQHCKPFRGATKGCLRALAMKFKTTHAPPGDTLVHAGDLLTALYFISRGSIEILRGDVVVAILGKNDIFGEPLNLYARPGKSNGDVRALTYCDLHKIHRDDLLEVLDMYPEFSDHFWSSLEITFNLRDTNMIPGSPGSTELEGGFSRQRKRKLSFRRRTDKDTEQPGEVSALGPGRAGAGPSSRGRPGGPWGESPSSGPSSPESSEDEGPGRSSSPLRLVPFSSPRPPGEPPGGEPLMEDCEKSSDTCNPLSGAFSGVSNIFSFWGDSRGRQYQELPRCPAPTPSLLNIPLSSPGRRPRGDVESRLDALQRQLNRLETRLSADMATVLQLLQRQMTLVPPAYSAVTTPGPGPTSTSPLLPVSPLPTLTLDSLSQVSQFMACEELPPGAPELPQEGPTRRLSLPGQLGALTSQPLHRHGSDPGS

| Compound | IC50 (Renin [1]) [nM] | Ratio IC50 [2] | IC50 (Renin [3]) [nM] | also measured |
| --- | --- | --- | --- | --- |
| Cc1ccc(F)cc1N1CC(C)(C)N([C@H]2CNC[C@@H](C(=O)N[C@H](CC(C)C)c3ccc(F)cn3)C2)CC1=O | 16 | 2.1 | 1.3 | inhibition at 30 µM (hERG (KCNH2)): 40%; AUC (Rattus norvegicus): -606 mmHg.hr; inhibition at 10 µM (CYP3A4): 44%; inhibition at 10 µM (CYP2D6): 11% |
| CC(C)C[C@@H](NC(=O)[C@@H]1CNC[C@H](N2CC(=O)N(c3ccccc3Cl)CC2(C)C)C1)C(O)C(C)C (stereo partly drawn) |  | 0.8 |  |  |
| CC(C)C[C@@H](NC(=O)[C@@H]1CNC[C@H](N2CC(=O)N(c3ccccc3Cl)CC2(C)C)C1)c1cccnc1 |  | 0.9 |  |  |
| CC[C@@H](NC(=O)[C@@H]1CNC[C@H](N2CC(=O)N(c3ccccc3Cl)CC2(C)C)C1)c1ccc(Cl)cc1 | 55 | 11 | 5.2 |  |
| CC[C@@H](NC(=O)[C@@H]1CNC[C@H](N2CC(=O)N(c3ccccc3Cl)CC2(C)C)C1)c1ccccc1F | 11 | 2.3 | 3.3 |  |
| CCOC[C@@H](CC(C)C)NC(=O)[C@@H]1CNC[C@H](N2CC(=O)N(c3ccccc3Cl)CC2(C)C)C1.O=C(O)/C=C/C(=O)O |  | 0.5 |  | AUC(0-t) at 24 h [4]: 60 ng·h/mL |
| CCC[C@@H](NC(=O)[C@@H]1CNC[C@H](N2CC(=O)N(c3ccccc3Cl)CC2(C)C)C1)c1ccccc1 |  | 2 |  |  |
| CC[C@@H](NC(=O)[C@@H]1CNC[C@H](N2CC(=O)N(c3ccccc3Cl)CC2(C)C)C1)c1ccccc1.O=C(O)/C=C/C(=O)O |  | 1.8 |  | AUC(0-t) at 24 h [5]: 1500 ng·h/mL; AUC(0-t) at 24 h [4]: 730 ng·h/mL |
| CC(C)C[C@@H](NC(=O)[C@@H]1CNC[C@H](N2CC(=O)N(c3ccccc3Cl)CC2(C)C)C1)c1ccno1 | 3.3 | 0.6 | 1.1 |  |
| CC(C)C[C@@H](NC(=O)[C@@H]1CNC[C@H](N2CC(=O)N(c3ccccc3Cl)CC2(C)C)C1)c1ccc(F)cn1.O=C(O)/C=C/C(=O)O | 9.7 | 2.1 | 1 | AUC(0-t) at 24 h [6]: 2580 ng·h/mL; inhibition at 30 µM (hERG (KCNH2)): 27%; AUC (Rattus norvegicus): -535 mmHg.hr; AUC (Cynomolgus monkey): -194 mmHg.hr; inhibition at 10 µM (CYP3A4): 22%; inhibition at 10 µM (CYP2D6): 8.3% |
